In article PMC5639204, “Structures of Leishmania Fructose-1,6-Bisphosphatase Reveal Species-Specific Differences in the Mechanism of Allosteric Inhibition” (Journal of Molecular Biology, 2017):
One block for each molecule: values may come before it.

Legend:
[1] = target: T1, fructose-1,6-bisphosphatase (LmFBPase) (Leishmania major, UniProt O97193); assay: co-crystal structure ([…] Å) with F6P; coupled enzyme assay Ki; assay type: biochemical; set-up: gene FBP; C-terminal His6-tagged LmFBPase, homotetramer
T1 sequence (O97193 1-351): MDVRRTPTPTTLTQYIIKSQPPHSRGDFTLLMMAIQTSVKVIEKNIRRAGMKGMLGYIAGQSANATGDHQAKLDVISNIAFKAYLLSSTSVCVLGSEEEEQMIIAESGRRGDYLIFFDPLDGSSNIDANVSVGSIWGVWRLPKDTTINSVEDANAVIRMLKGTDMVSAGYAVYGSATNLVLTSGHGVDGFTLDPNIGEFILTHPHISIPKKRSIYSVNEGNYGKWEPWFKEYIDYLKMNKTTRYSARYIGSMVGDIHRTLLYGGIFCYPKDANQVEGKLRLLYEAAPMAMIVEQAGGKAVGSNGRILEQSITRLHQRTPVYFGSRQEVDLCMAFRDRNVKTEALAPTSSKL

[2] = target: T2, fructose-1,6-bisphosphatase (LmFBPase) (Leishmania major, UniProt O97193); assay: PGI/G6PDH coupled enzyme activity assay; assay type: biochemical
T2 construct: gene FBP; C-terminal His6-tagged LmFBPase

[3] = target: T1, fructose-1,6-bisphosphatase (LmFBPase); assay: co-crystal structure ([…] Å) with AMP; thermal shift; assay type: binding; set-up: gene FBP; C-terminal His6-tagged LmFBPase, homotetramer
[4] = target: T1, fructose-1,6-bisphosphatase (LmFBPase); set-up: gene FBP

Structure (SMILES): Nc1ncnc2c1ncn2[C@@H]1O[C@H](COP(=O)(O)O)[C@@H](O)[C@H]1O [AMP]
- Ki [1]: 63.8 µM

- Ki [2]: 1.9 µM
Structure (SMILES): O=P(O)(O)OC[C@H]1O[C@@](CO)(OP(=O)(O)O)[C@@H](O)[C@@H]1O [Fructose 2,6-bisphosphate]

Structure (SMILES): O=P(O)(O)OC[C@H]1OC(O)(CO)[C@@H](O)[C@@H]1O (stereo partly shown) [fructose 6-phosphate]
- co-crystal structure (2.62 Å) with AMP; thermal shift [3]: The catalytic product F6P was found in each of the active sites of the four subunits

Structure (SMILES): O=P(O)(O)O [phosphate]
- co-crystal structure (2.8 Å) with Mn2+ [4]: a catalytic product Pi and manganese atoms were found in each active site
